These results are taken from US20240124503A1, “HETEROAROMATIC PHOSPHONIUM SALTS AND THEIR USE TREATING CANCER” (FLORATEK PHARMA S.A., priority 2021, published 2024).

The structures appear in SMILES notation.

Test [1] addresses T1, RSK2(Kin.Dom.1-N-terminal) (Homo sapiens, UniProt P51812).
T1 construct: Kin.Dom.1; purchased Eurofins (KINOMEscan); host or cells: E. coli BL21-derived host (T7 phage) or HEK-293
Nature of the test: KINOMEscan competition binding, RSK2(Kin.Dom.1-N-terminal). Here is the method: (§1) Selected compounds were screened for kinase inhibition using the KINOMEscan™ assay (Eurofins) which is based on a competition binding assay that quantitatively measures the ability of a compound to compete with an immobilized, active-site directed ligand. The assay was performed by combining three components: DNA-tagged kinase; immobilized ligand; and the test compound. The ability of the test compound to compete with the immobilized ligand was measured via quantitative PCR of the DNA tag.
(§2) Kinase-tagged T7 phage strains were prepared in an E. coli host derived from the BL21 strain. E. coli were grown to log-phase and infected with T7 phage and incubated with shaking at 32° C. until lysis. The lysates were centrifuged and filtered to remove cell debris. The remaining kinases were produced in HEK-293 cells and subsequently tagged with DNA for qPCR detection. Streptavidin-coated magnetic beads were treated with biotinylated small molecule ligands for 30 minutes at room temperature to generate affinity resins for kinase assays. […] Kds were determined using an 11-point 3-fold compound dilution series with three DMSO control points. […] The kinase concentration in the eluates was measured by qPCR. […]
(§3) Binding constants (Kds) were calculated with a standard dose-response curve using the Hill equation: Response=Background+[Signal−Background/1+(Kd^Hill Slope/Dose^Hill Slope)] […]

Test [2] has as its target T2, ADCK3 (Homo sapiens, UniProt Q8NI60).
T2 construct: purchased Eurofins (KINOMEscan); host or cells: E. coli BL21-derived host (T7 phage) or HEK-293
The experiment in a line: KINOMEscan competition binding, ADCK3. Here is the method:
as §1, §2, §3

Test [3] relates to CHP-134. Nature of the test: Cell viability assay, CHP-134. It is filed as cell-based. As to conditions: Homo sapiens; brain carcinoma cell line CHP-134. Here is the method: Antitumor activity of the compounds and doxorubicin as a positive control was assessed by using the CellTiter-Blue Cell Viability Assay (Promega, #G8082) or CellTiter-Glow® Luminescent Cell Viability assay (Promega #G7572) according to the manufacturer's instructions. The compounds were tested at 5 or 6 concentrations in half-log increments (highest concentration 30 μM or 100 μM) in duplicate or triplicate well conditions.
Tumor cells were grown at 37° C. in a humidified atmosphere with 5% CO2 in RPMI 1640 or DMEM medium, supplemented with 10% (v/v) fetal calf serum and 50 μg/ml gentamicin for up to 20 passages, and were passaged once or twice weekly. Cells were harvested using TrypLE or PBS buffer containing 1 mM EDTA, and the percentage of viable cells was determined using a CASY Model TI cell counter (OMNI Life Science). Cells were harvested from exponential phase cultures, counted and plated in 96 well flat-bottom microtiter plates at a cell density depending on the cell line's growth rate (4,000-20,000 cells/well depending on the cell line's growth rate, up to 60,000 for hematological cancer cell lines) in RPMI 1640 or DMEM medium supplemented with 10% (v/v) fetal calf serum and 50 μg/ml gentamicin (140 μl/well). […] Viability of cells was quantified by the CellTiter-Blue® cell viability assay (Promega G8081) or CellTiter-Glow® Luminescent Cell Viability assay (Promega #G7572). […]

T1 sequence (P51812 68-327 limits assumed): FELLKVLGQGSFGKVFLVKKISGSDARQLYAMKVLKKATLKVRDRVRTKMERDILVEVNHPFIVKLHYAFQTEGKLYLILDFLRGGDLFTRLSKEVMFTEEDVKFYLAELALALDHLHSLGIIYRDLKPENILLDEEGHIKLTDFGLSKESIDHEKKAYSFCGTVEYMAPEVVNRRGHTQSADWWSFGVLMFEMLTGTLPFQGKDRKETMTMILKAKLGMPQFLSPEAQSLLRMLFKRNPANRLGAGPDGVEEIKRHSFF
T2 sequence (Q8NI60 163-647): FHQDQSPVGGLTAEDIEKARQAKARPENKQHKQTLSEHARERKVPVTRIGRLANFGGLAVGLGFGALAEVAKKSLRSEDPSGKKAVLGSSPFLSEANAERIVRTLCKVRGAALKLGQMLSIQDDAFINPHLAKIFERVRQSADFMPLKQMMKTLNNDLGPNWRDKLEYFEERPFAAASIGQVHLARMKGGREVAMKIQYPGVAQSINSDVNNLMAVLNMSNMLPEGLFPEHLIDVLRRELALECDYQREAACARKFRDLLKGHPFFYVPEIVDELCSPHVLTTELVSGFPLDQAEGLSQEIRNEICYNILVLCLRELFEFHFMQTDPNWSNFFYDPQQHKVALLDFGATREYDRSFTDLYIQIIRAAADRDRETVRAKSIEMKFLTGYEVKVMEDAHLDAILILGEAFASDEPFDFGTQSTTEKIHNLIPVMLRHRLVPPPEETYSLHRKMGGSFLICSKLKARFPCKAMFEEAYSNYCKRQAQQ

The Kd is a measure of binding affinity in units of concentration. High values mean weaker binding, low ones tighter binding. As usually defined, the IC50 is the concentration at which inhibition is half-maximal. High values mean lower potency, low ones higher potency. In the case of `COc1c(O)ccc2c(=O)c(O)c(-c3ccc(CCCC[P+](c4ccccc4)(c4ccccc4)c4ccccc4)cc3)oc12` [SND190, (4-(4-(3,7-Dihydroxy-8-methoxy-4-oxo-4H1-chromen-2-yl)phenyl)butyl)triphenylphosphonium bromide], the Kd came out at 1700 nM in test [1] and 100 nM in test [2]. The same compound came in with an IC50 in test [3] of 1100 nM.
